According to article PMC7318554 (Journal of medicinal chemistry, 2020):
Read-outs that look alike come from different tables or passages of the source.

Tests used:
[1] = molecular target: EGFR e19d (EGFR mutant with exon 19 deletion) (Homo sapiens, UniProt P00533, DEL746-750); test: Western blotting of EGFR protein in HCC-827 cells; assay type: cell-based; settings: for time after washout at which the EGFR protein level was recovered: 12 h degrader treatment, then washout; for maximum EGFR protein degradation: at a concentration as low as 50 nM, 16 h; for hook effect: highest concentration 10 μM (PROTAC3: 1 and 10 μM)
EGFR L858R [2] = molecular target: T1, EGFR L858R (Homo sapiens, UniProt P00533, L858R); test: Western blotting of EGFR protein in H3255 cells; assay type: cell-based; settings: for reversibility of EGFR degradation upon washout / maximum EGFR protein degradation / hook effect / effect on mutant EGFR protein level: H3255 cells; for reversibility of EGFR degradation upon washout: 12 h degrader treatment, then washout; for maximum EGFR protein degradation: at a concentration as low as 50 nM, 16 h; for hook effect: highest concentration 10 μM (PROTAC3: 1 and 10 μM); for effect on mutant EGFR protein level: 8 h serum-free, 16 h treatment, gefitinib at 1 μM
WT EGFR [3] = molecular target: T2, WT EGFR (Homo sapiens, UniProt P00533); test: Western blotting of WT EGFR protein in OVCAR-8 cells; assay type: cell-based; settings: 8 h serum-free, 16 h treatment
WT EGFR [4] = molecular target: T2, WT EGFR; test: Western blotting of WT EGFR protein in H1299 cells; assay type: cell-based; settings: 8 h serum-free, 16 h treatment
p-EGFR, p-AKT [5] = test: Western blotting of downstream signaling; assay type: cell-based
p-EGFR, p-AKT [6] = test: Western blotting of downstream signaling; assay type: cell-based; remark: listed apart in the source
H3255 cells = test: Cell proliferation assay; assay type: cell-based; settings: 3 days
EGFR = EGFR (Homo sapiens, UniProt P00533, DEL746-750); test: Global label-free quantitative proteomics in HCC-827 cells; assay type: cell-based; settings: HCC-827 cells starved 8 h; 100 nM for 16 h
in vivo = settings: male, Swiss Albino, mouse, ip, 50 mg/kg
[7] = Mouse pharmacokinetic study; settings: mice; single IP injection 50 mg/kg
EGFR WT = EGFR WT (Homo sapiens, UniProt P00533); test: KINOMEscan competition binding assay, EGFR WT
EGFR L858R [8] = molecular target: T1, EGFR L858R; test: KINOMEscan competition binding assay, EGFR L858R; settings: EGFR L858R mutant
WT EGFR [9] = molecular target: T2, WT EGFR; settings: previous finding; cited from earlier work
[10] = 100 nM, after 8 h serum starvation
[11] = HCC-827 cells, 12 h degrader treatment, then washout
[12] = HCC-827 cells, 16 h treatment, gefitinib at 1 μM
[13] = H3255 cells, 16 h treatment, gefitinib at 1 μM

COc1cc2ncnc(Nc3ccc(F)c(Cl)c3)c2cc1OCCCN1CCN(C(=O)CCCCCCCCCC(=O)N[C@H](C(=O)N2C[C@H](O)C[C@H]2C(=O)NCc2ccc(-c3scnc3C)cc2)C(C)(C)C)CC1 [Compound 6, (2S,4R)-1-((S)-2-(11-(4-(3-((4-((3-Chloro-4-fluorophenyl)amino)-7-methoxyquinazolin-6-yl)oxy)propyl)piperazin-1-yl)-11-oxounde-canamido)-3,3-dimethylbutanoyl)-4-hydroxy-N-(4-(4-methylthiazol-5-yl)benzyl)pyrrolidine-2-carboxamide]
treatment time to near-complete / maximum EGFR degradation [1, 10]: around 12 h
time after washout at which the EGFR protein level was recovered [1]: 24 h
maximum EGFR protein degradation [1]: over 95%
hook effect [1]: slight “hook effect”
reversibility of EGFR degradation upon washout (EGFR L858R [2]): reversible
maximum EGFR protein degradation (EGFR L858R [2]): over 95%
hook effect (EGFR L858R [2]): undetectable
effect on WT EGFR protein levels (WT EGFR [3]): did not significantly reduce the WT EGFR protein levels
effect on WT EGFR protein levels (WT EGFR [4]): did not significantly reduce the WT EGFR protein levels
effect on AKT protein levels (p-EGFR, p-AKT [5]): did not affect the AKT protein levels
inhibition of EGFR autophosphorylation (p-EGFR) and AKT phosphorylation (p-AKT) (p-EGFR, p-AKT [5]): potently inhibited
time after washout at which p-AKT was recovered (p-EGFR, p-AKT [5]): 48 h
time after washout at which p-EGFR was recovered (p-EGFR, p-AKT [5]): 24 h
treatment time at which robust inhibition of p-AKT was observed (p-EGFR, p-AKT [5]): 1 h
effect on AKT protein levels (p-EGFR, p-AKT [6]): did not affect the AKT protein levels
inhibition of EGFR autophosphorylation (p-EGFR) and AKT phosphorylation (p-AKT) (p-EGFR, p-AKT [6]): potently inhibited
cell growth inhibition (H3255 cells): effectively inhibited the growth of H3255 cells
potency at cell growth inhibition compared with PROTAC3 (H3255 cells): more potent than the previously reported PROTAC3
potency at cell growth inhibition compared with gefitinib (H3255 cells): less potent
EGFR protein degraded (EGFR): Over 75%
concentration at 24 h (in vivo): ~1 µM
plasma concentration maintained over 8 h [7]: approximately 5 μM
tolerability [7]: well tolerated, and no clinical signs were observed
weaker binding affinity compared to gefitinib (EGFR WT): approximately 10 fold
weaker binding affinity compared to gefitinib (EGFR L858R [8]): approximately 10 fold

COc1cc2ncnc(Nc3ccc(F)c(Cl)c3)c2cc1OCCCN1CCN(CCC(=O)NCCCCCCCCOc2cccc3c2C(=O)N(C2CCC(=O)NC2=O)C3=O)CC1 (centres unmarked) [Compound 10, 3-(4-(3-((4-((3-Chloro-4-fluorophenyl)amino)-7-methoxyquinazolin-6-yl)oxy)propyl)piperazin-1-yl)-N-(8-((2-(2,6-dioxopiperidin-3-yl)-1,3-dioxoisoindolin-4-yl)oxy)octyl)propanamide]
time to reduce the half-maximum of the EGFR protein level [1, 10]: 3.5 h
treatment time to near-complete / maximum EGFR degradation [1, 10]: 12 h
time after washout at which the EGFR protein level was recovered [1]: 24 h
maximum EGFR protein degradation [1]: over 95%
hook effect [1]: slight “hook effect”
reversibility of EGFR degradation upon washout (EGFR L858R [2]): reversible
maximum EGFR protein degradation (EGFR L858R [2]): over 95%
hook effect (EGFR L858R [2]): undetectable
effect on WT EGFR protein levels (WT EGFR [3]): did not significantly reduce the WT EGFR protein levels
effect on WT EGFR protein levels (WT EGFR [4]): did not significantly reduce the WT EGFR protein levels
effect on AKT protein levels (p-EGFR, p-AKT [5]; HCC-827 cells): did not affect the AKT protein levels
time after washout at which p-AKT was recovered (p-EGFR, p-AKT [5]; [11]): 48 h
time after washout at which p-EGFR was recovered (p-EGFR, p-AKT [5]; [11]): 24 h
inhibition of EGFR autophosphorylation (p-EGFR) and AKT phosphorylation (p-AKT) (p-EGFR, p-AKT [5]; [12]): potently inhibited
effect on AKT protein levels (p-EGFR, p-AKT [6]; H3255 cells): did not affect the AKT protein levels
inhibition of EGFR autophosphorylation (p-EGFR) and AKT phosphorylation (p-AKT) (p-EGFR, p-AKT [6]; [13]): potently inhibited
cell growth inhibition (H3255 cells): inhibited the growth of H3255 cell
potency at cell growth inhibition compared with PROTAC3 (H3255 cells): not as potent as compound 6 and PROTAC3
potency at cell growth inhibition compared with gefitinib (H3255 cells): less potent
EGFR protein degraded (EGFR): Over 75%
highest plasma concentration [7]: approximately 500 nM
time post dosing of the highest plasma concentration [7]: 8 h
tolerability [7]: well tolerated, and no clinical signs were observed
weaker binding affinity compared to gefitinib (EGFR L858R [8]): 5 fold

COc1cc2ncnc(Nc3ccc(F)c(Cl)c3)c2cc1OCCCN1CCN(C(=O)CCCCCCCCCC(=O)N[C@H](C(=O)N2C[C@@H](O)C[C@@H]2C(=O)NCc2ccc(-c3scnc3C)cc2)C(C)(C)C)CC1 [Compound 27, (2R,4S)-1-((S)-2-(11-(4-(3-((4-((3-Chloro-4-fluorophenyl)amino)-7-methoxyquinazolin-6-yl)oxy)propyl)piperazin-1-yl)-11-oxoundecanamido)-3,3-dimethylbutanoyl)-4-hydroxy-N-(4-(4-methylthiazol-5-yl)benzyl)pyrrolidine-2-carboxamide]
effect of 2 h pretreatment on EGFR degradation induced by compound 6 (EGFR L858R [2]): blocked
effect on mutant EGFR protein level (EGFR L858R [2]): did not significantly induce the degradation of EGFR mutants
inhibition of EGFR autophosphorylation (p-EGFR) and AKT phosphorylation (p-AKT) (p-EGFR, p-AKT [5]): lower potency
inhibition of EGFR autophosphorylation (p-EGFR) and AKT phosphorylation (p-AKT) (p-EGFR, p-AKT [6]): lower potency

COc1cc2ncnc(Nc3ccc(F)c(Cl)c3)c2cc1OCCCN1CCN(CCC(=O)NCCCCCCCCOc2cccc3c2C(=O)N(C2CCC(=O)N(C)C2=O)C3=O)CC1 (centres unmarked) [Compound 28, 3-(4-(3-((4-((3-Chloro-4-fluorophenyl)amino)-7-methoxyquina-zolin-6-yl)oxy)propyl)piperazin-1-yl)-N-(8-((2-(1-methyl-2,6-dioxopiperidin-3-yl)-1,3-dioxoisoindolin-4-yl)oxy)octyl)propanamide]
effect on mutant EGFR protein level (EGFR L858R [2]): did not significantly induce the degradation of EGFR mutants
inhibition of EGFR autophosphorylation (p-EGFR) and AKT phosphorylation (p-AKT) (p-EGFR, p-AKT [5]; [12]): lower potency
inhibition of EGFR autophosphorylation (p-EGFR) and AKT phosphorylation (p-AKT) (p-EGFR, p-AKT [6]; [13]): lower potency

COc1cc2ncnc(Nc3ccc(F)c(Cl)c3)c2cc1OCCCCCOCCOCCC(=O)N[C@H](C(=O)N1C[C@H](O)C[C@H]1C(=O)NCc1ccc(-c2scnc2C)cc1)C(C)(C)C [PROTAC3, reference compound]
hook effect [1]: much more significant hook effect
hook effect (EGFR L858R [2]): much more significant hook effect
potency at cell growth inhibition compared with gefitinib (H3255 cells): less potent
degradation of the WT EGFR (WT EGFR [9]): did not degrade the WT EGFR

Cc1ncsc1-c1ccc(CNC(=O)[C@@H]2C[C@@H](O)CN2C(=O)[C@@H](NC(=O)C2(C#N)CC2)C(C)(C)C)cc1 [VH-298, reference compound]
effect of 2 h pretreatment on EGFR degradation induced by compound 6 (EGFR L858R [2]): blocked

O=C1CCC(N2C(=O)c3ccccc3C2=O)C(=O)N1 (centres unmarked) [thalidomide, reference compound]
effect of 2 h pretreatment on EGFR degradation induced by compound 10 (EGFR L858R [2]): blocked
